Experimental data published in patent US11229635B2, “Method of treating fibrosis” (BCN Biosciences L.L.C., priority 2016, dated 2022).

Experiments:
[1] = system: radiation dermatitis (erythema, edema); assay: Draize scoring of dermal radiation sites, dermal dosing 10 mg/mL Day 0 to 6; assay type: in vivo; conditions: Avg of Days 1-6 and 8
[2] = system: WINT target gene expression; assay: Wnt target gene expression; conditions: FIG. 23
[3] = system: lung organoids; assay: Ex vivo 3D lung organoid culture after radiation; assay type: cell-based, mice; conditions: 6 Gy; 28 μM at 1-hour post-radiation exposure
Procedure: 512 induces lung organoid growth in ex vivo cultures: Ex vivo 3D organoid cultures are one of the best models for studying stem cell growth and proliferation because organoid growth depends primarily on the presence of stem cells. For these experiments, mice were euthanized by CO2 or ketamine-xylazine administration and the abdominal aorta was exposed and exsanguinated. The thoracic cavity was opened, and the lungs were exposed. Blood was flushed from the lung vasculature by perfusion with 10 mL of sterile cold PBS through the right ventricle. The trachea was cannulated with a 24-G cannula, and 1.2 mL of 10 U dispase (BD) was then injected into the lungs. The trachea and lungs were removed from the chest en-block and incubated for 20 minutes at room temperature (RT). The lung lobes were dissected from the trachea, heart, and rest of mediastinal structures and then finely minced and incubated for 10 more min with 2 mL of dispase. The suspension was passed through an 18-G needle 4-5 times to help open the lung compartments. If sticky DNA was detected, 10-30 μL of 4 mg/mL DNase I (Sigma) was added to the cell suspension and incubated at 37° C. for 5 min. The cells were filtered through a 100-μ cell strainer (BD Biosciences) to obtain single-cell suspensions (SCS). Red blood cells were lysed using RBC lysing buffer. […]

[4] = system: human A549 adenocarcinoma cells; assay: A549 xenograft lung colony model in nude mice; assay type: in vivo; conditions: 20 mg/kg sc once daily for 5 days, with or without 4 Gy LTI x 3, day 72
Procedure: LTI alone decreased the number of co […] lonies by 40%. Extensive analysis of the drug doses that would be optimal for exerting effects on tumors in the radiation setting are still needed, but there is no evidence for enhanced tumor growth as a result of radiation treatment with drug, and in fact exactly the opposite. […] Thirty-two nude mice were injected intravenously with 5×10^4 human A549 adenocarcinoma cells on day 1. The drug was administered starting at day 3; 20 mg/kg BCN512 was injected subcutaneously once daily for 5 days. Fractionated radiation was started on day 4, with 4 Gy LTI administered daily for 3 days. Tumors developed very slowly, so the mice were sacrificed on day 72 and the number of nodules in the lungs were counted. There was considerable variation in the irradiated group, with a tendency for lung irradiation to increase the number of tumor colonies. This is not a unique observation that may be ascribed to radiation-induced myeloid cell mobilization.

[5] = system: inflammatory peritoneal macrophages; assay: Cytokine release by LPS-stimulated inflammatory peritoneal macrophages; assay type: cell-based; conditions: stimulation with LPS in vitro
Description: Because of the focus on lung fibrosis, we examined the effects of irradiation on macrophages in terms of their ability to modulate fibroblast responses. […] In addition, BCN-512 blocks the ability of irradiated macrophages to stimulate fibroblast proliferation. The ability of BCN-512 to reprogram macrophages is likely highly relevant to its ability to mitigate radiation induced fibrosis and tissue damage

O=[N+]([O-])c1ccc(S(=O)(=O)N2CCN(c3ccccc3)CC2)cc1 [BCN512, 1-[(4-nitrobenezene)sulfonyl]-4-phenyl piperazine]
Average Draize score Edema [1]: 0
Average Draize score Edema Site 2 [1]: 0
Average Draize score Edema Site 3 [1]: 0.5714
Average Draize score Edema Site 4 [1]: 0
Average Draize score Edema Site 5 [1]: 0.8571
Average Draize score Edema Site 6 [1]: 0
Average Draize score Erythema Site 2 [1]: 0.4286
Average Draize score Erythema Site 3 [1]: 1.429
Average Draize score Erythema Site 4 [1]: 0.1429
Average Draize score Erythema Site 5 [1]: 1.571
Average Draize score Erythema Site 6 [1]: 0.8571
Wnt target gene expression [2]: induces the WINT target gene expression
lung organoid growth [3]: mitigated the radiation damage and induced lung organoid growth
number of tumor colonies (lung nodules) [4]: did not increase the number of tumor colonies
amount of pro-inflammatory cytokines released [5]: decreases
